Read-outs that look alike come from different tables or passages of the source.
Experiments:
tau AT8+ NFT = conditions: averaged across 7 cortical regions
[1] = tested on: anterior horn motor neurons
myelinated axon fibers = conditions: 7 of 16 vervets exposed to BMAA; NS, p=0.0956
IbA1+ microglia = conditions: for IbA1+ Density / IbA1+ microglia Size: median ± SEM, n = 8
[2] = tested on: TDP-43+ anterior horn motor neurons
[3] = vervet spinal cord, 210 mg/kg/day oral, 140 days, median ± SEM
[4] = lateral corticospinal tracts, Cervical Segment
[5] = lateral corticospinal tracts, Lumbar Segment
[6] = anterior horn, 210 mg/kg/day, 140 days, median ± SEM
[7] = lateral corticospinal tract, stimulated by BMAA dosing

CNC[C@H](N)C(=O)O [BMAA, β-N-methylamino-L-alanine]
increase of median numbers of GFAP+ astroglia (GFAP+ astroglia; anterior horn of the lumbar spinal cord, p=0.008, n=8): 44%
increase of density of GFAP+ activated astroglia (GFAP+ astroglia; anterior horns of the lumbar spinal cord, p=0.008): 1.4 fold
increase of median cortical tau AT8+ NFT density (tau AT8+ NFT; p<0.0001, n=8): 3.1 fold
decrease of anterior horn neuronal numbers ([1]; BMAA 210 mg/kg/day, 140 days, p=0.0016): 23%
greater frequency of eosinophilic neurons vs rice flour controls ([1]; cervical spinal cord anterior horns, BMAA 210 mg/kg/day, 140 days, p=0.024): 4.3 fold
reduction in size of eosinophilic lower motor neurons ([1]; cervical spinal cord anterior horns, p<0.0001): 40%
median total BMAA concentration in spinal cord tissues (BMAA and BMAA L-serine dosing cohorts pooled, ±13.7 SE): 61.4 µg/g
Free BMAA per gram of spinal cord tissues [3]: 8.9 ± 3.9 ^NS μg/g
Hydrolyzed Protein Pellet BMAA per gram of spinal cord tissues [3]: 0.5 ± 0.3 ^NS μg/g
Hydrolyzed Supernatant BMAA per gram of spinal cord tissues [3]: 34.0 ± 20.5 ^NS μg/g
vervets with loss of myelinated axon fiber staining in the lateral corticospinal tracts (myelinated axon fibers): 44%
density and total area covered by IbA1+ microglia, cervical compared to lumbar segments (IbA1+ microglia; BMAA-dosed primates, p=0.0039): 1.5 fold
IbA1+ Density (IbA1+ microglia; [4]): 1831.8 ± 206.9 Ct
IbA1+ microglia Size (IbA1+ microglia; [4]): 15.4 ± 1.7^NS Px
IbA1+ Density (IbA1+ microglia; [5]): 1213.7 ± 151.5^NS Ct
IbA1+ microglia Size (IbA1+ microglia; [5]): 13.9 ± 1.9^NS Px
increase of total area covered by IbA1+ microglia vs rice flour controls (IbA1+ microglia; lateral corticospinal tracts, cervical spinal cord, p=0.011, n=8): 1.6 fold
increase of median density of IbA1+ microglia vs rice flour controls (IbA1+ microglia; lateral corticospinal tracts, cervical spinal cord, p=0.048, n=8): 1.7 fold
effect on the size of Iba1+ microglia (IbA1+ microglia; lateral corticospinal tracts, NS, p=0.260, n=8): did not have a significant effect
vervets with cytoplasmic mislocalization of FUS protein ([2]; 2 of the 16 BMAA-dosed vervets): 12.5%
vervets with neurons positive for TDP-43 cytoplasmic inclusion bodies ([2]; 12 of 16 vervets fed BMAA): 75%
number of TDP-43+ motor neurons per region of interest, All Spinal Cord Segments [2, 6]: 4.5 ± 1.7
number of TDP-43+ motor neurons per region of interest, Cervical Segment [2, 6]: 3.0 ± 1.9
number of TDP-43+ motor neurons per region of interest, Lumbar Segment [2, 6]: 3.0 ± 3.1
mean density and distribution of TDP-43+ inclusions vs controls ([2]; toxin-dosed vervets, p=0.024): 5 fold

N[C@@H](CO)C(=O)O [L-serine]
reduction of total number of GFAP+ astroglia by coadministration of L-serine (GFAP+ astroglia; anterior horn of the lumbar spinal cord, BMAA + L-serine both 210 mg/kg/day, p=0.008): 21%
reduction of total area of GFAP+ astroglia by coadministration of L-serine (GFAP+ astroglia; anterior horn of the lumbar spinal cord, automated image analysis, p=0.007): 20%
attenuation of BMAA-induced tau NFT density by coadministration of L-serine (tau AT8+ NFT): 40%
effect of L-serine coadministration on median concentrations of BMAA in spinal cord (any fraction of the vervet spinal cord): did not significantly reduce
attenuation of CD68+ microglial expression by coadministration of L-serine (CD68+ microglia; [7]): 24%
effect of L-serine coadministration on CD68+ microglial nodule numbers, size and expression intensity (CD68+ microglia; p=0.01, n=8): reduced
attenuation of mean Iba1+ microglia distribution by coadministration of L-serine (IbA1+ microglia; [7]): 32%
